Source: US9532988B2, “Pharmaceutical composition comprising a TRPA1 antagonist and an analgesic agent” (GLENMARK PHARMACEUTICALS S.A., priority 2013, dated 2017)

What was measured:
[1] = system: MIA-osteoarthritis induced mechanical punctate allodynia in male SD rats; test: MIA-induced mechanical punctate allodynia (dynamic von Frey); assay type: in vivo, rat (Sprague-Dawley); settings: Compound III 0.132 mg/kg p.o. alone; 0.5-4 h post-dose; Example 19, Table 22, FIG. 25
Protocol: MIA was dissolved in 0.9% sterile saline and administered using a 26½ gauge needle. Contralateral knees were injected intra-articularly with 50 μl of 0.9% sterile saline. On the day of the experiment (20 h after MIA injection), rats were evaluated for pre-dose mechanical punctate allodynia to assess the effect of MIA. After regrouping the rats after randomization, the pre- & post-dose mechanical allodynia was assessed for both hind paws. […] The % reversal of punctate allodynia was calculated as per standard procedure. Animals were weighed and grouped as described in Table 22.

[2] = system: Streptozotocin (STZ)-induced diabetic peripheral neuropathic hyperalgesia in male SD rats; test: Streptozotocin-induced diabetic peripheral neuropathic hyperalgesia; assay type: in vivo, rat (Sprague-Dawley); settings: Compound III 0.04 mg/kg p.o. alone; 0.5-4 h post-dose; Example 18, Table 21, FIG. 24
Protocol: (§1) Streptozotocin (STZ)-induced neuropathic hyperalgesia in rats is a model to screen potential therapeutics for diabetic painful neuropathy in human patients. Streptozotocin was dissolved in freshly prepared cold citrate buffer (0.1 M, pH—4.4). Diabetes was induced in overnight fasted male SD rats (weighing 250-300 g) by a single intraperitoneal injection of Streptozotocin (Sigma, 55 mg/kg, i.p). […] On the day of the experiment (13th day after STZ injection) rats were assessed for mechanical hyperalgesia using Randall-Sellito paw pressure analgesymeter. Animals were weighed and grouped as described in Table 9.
Rats were orally dosed with vehicle, duloxetine hydrochloride, Compound I potassium salt and combination (Duloxetine+Compound I).
as §1, with “pH —4.4).” for “pH—4.4).”, “Sprague Dawley” for “SD”, “rats” for “rats (weighing 250-300 g)”, “analgesymeter.” for “analgesymeter. Animals were weighed and grouped as described in Table 9.”
Rats were orally dosed with vehicle, different doses of duloxetine hydrochloride, Compound II disodium salt and combinations (duloxetine+Compound II—simultaneously). The post-dose paw withdrawal thresholds were measured at 1, 2 & 4 h after oral administration. […] Animals were weighed and grouped as described in Table 16.
Rats were orally dosed with vehicle, different doses of duloxetine hydrochloride, Compound III disodium salt and combinations (duloxetine+Compound III—simultaneously). […] Animals were weighed and grouped as described in Table 21.

[3] = system: Freund's Complete Adjuvant (FCA)-induced inflammatory mechanical hyperalgesia in male SD rats; test: FCA-induced inflammatory mechanical hyperalgesia (Randall-Sellitto paw pressure);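 further: left hind paw withdrawal threshold (g) to rising pressure on an analgesymeter, FCA injected intraplantar 24 h earlier, thresholds taken before and 0.5, 1, 2 and 4 h after oral dosing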; settings: Compound III 0.039 mg/kg p.o. alone
Protocol: Materials: FCA containing 1 mg/ml of heat killed and dried Mycobacterium tuberculosis (H37RA strain) emulsified in mineral oil and mannide mono-oleate; Male SD rats weighing 170-220 g; Paw Pressure Analgesymeter (37215, Ugo Basile, Comerio, Italy); Compound I potassium; and Diclofenac sodium
Naïve withdrawal thresholds of the left hind paw to an increasing pressure (g) stimulus were measured in rats using the analgesymeter. FCA was injected (30 μl) into the plantar region of left paw of rats to induce the inflammatory hyperalgesia. Mechanical hyperalgesia (24 h after FCA injection) was assessed by measuring hind paw withdrawal thresholds.
The post-dose paw withdrawal thresholds were measured at 0.5, 1, 2 & 4 h after oral administration. The percentage (%) reversal of mechanical hyperalgesia was calculated as per standard procedure.
Naïve withdrawal thresholds of the left hind paw to an increasing pressure (g) stimulus were measured in rats using the analgesymeter. Freund's Complete Adjuvant (FCA) was injected (30 μl) into the plantar region of left paw of rats to induce the inflammatory hyperalgesia. Mechanical hyperalgesia (24 h after FCA injection) was assessed both pre- & post-dosing of drugs by measuring hind paw withdrawal thresholds. […] The post-dose paw withdrawal thresholds were measured at 0.5, 1, 2 & 4 h after oral administration. The % reversal of mechanical hyperalgesia was calculated.
Naïve withdrawal thresholds of the left hind paw to an increasing pressure (g) stimulus were measured in rats using the analgesymeter.

[4] = system: FCA-induced thermal hyperalgesia in male SD rats; test: FCA-induced thermal hyperalgesia (Hargreaves apparatus); assay type: in vivo, rat (Sprague-Dawley); settings: Compound III 0.039 mg/kg p.o. alone; 0.5-4 h post-dose; Example 16, Table 19, FIG. 22
Protocol: The % reversal of mechanical/thermal hyperalgesia was calculated.

Compound: Cn1c(=O)c2c(CC(=O)N=c3scc(-c4ccc(C(F)(F)F)c(F)c4F)n3COP(=O)(O)O)nsc2n(C)c1=O [Compound III, [4-[2,3-difluoro-4-(trifluoromethyl)phenyl]-2-{[(5,7-dimethyl-4,6-dioxo-4,5,6,7-tetrahydro[1,2]thiazolo[5,4-d]pyrimidin-3-yl)acetyl]imino}-1,3-thiazol-3(2H)-yl]methyl dihydrogen phosphate]
- maximal % reversal of mechanical punctate allodynia [1]: 19%
- maximal % reversal of hyperalgesia [2]: 19%
- maximal % reversal of mechanical hyperalgesia ([3]; Example 16, Table 19, FIG. 21): 17%
- maximal % reversal of mechanical hyperalgesia ([3]; Example 17, Table 20, FIG. 23): 17%
- maximal % reversal of thermal hyperalgesia [4]: 22%
